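Tested at 5 concentrations; 48 h exposure; 96-well plates; endpoints linearly interpolated, else capped at highest concentration. The concentration for 50% growth inhibition is given as GI50. TGI: concentration producing complete growth inhibition.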 Where a SMILES comes first, the peptide text is derived from it. Bridges are numbered along the chain shown (N, C = ends). Roman numbers before positions name the chains, in order. [ ]: non-standard residue; d: D form. The star is where a group is joined. Heptadecanoyl = CCCCCCCCCCCCCCCCC(=O)*; Phg = N[CH](C(=O)O)c1ccccc1
Experiments:
Experiment in all cases: DTP human tumour cell line panel, 48 h
OVCAR-8 ovarian = system: OVCAR-8 ovarian
HT29 colon = system: HT29 colon
SF-539 CNS = system: SF-539 CNS
786-0 renal = system: 786-0 renal
SW-620 colon = system: SW-620 colon
SNB-19 CNS = system: SNB-19 CNS
BT-549 breast = system: BT-549 breast
K-562 leukemia = system: K-562 leukemia
MCF7 breast = system: MCF7 breast

## N=c1c2ccccc2nc2oc3ccc(Cl)cc3n12
OVCAR-8 ovarian
  TGI: 69.1 µM
HT29 colon
  TGI: > 100 µM
SF-539 CNS
  TGI: 32 µM
786-0 renal
  TGI: 15.9 µM
SW-620 colon
  TGI: > 100 µM
SNB-19 CNS
  TGI: > 100 µM
BT-549 breast
  TGI: > 100 µM
K-562 leukemia
  TGI: > 100 µM

## Cc1c(C)c2ccc(O)cc2[nH]c1=O
OVCAR-8 ovarian
  TGI: > 100 µM
HT29 colon
  TGI: > 100 µM
SF-539 CNS
  TGI: > 100 µM
786-0 renal
  TGI: > 100 µM
MCF7 breast
  TGI: > 100 µM
SW-620 colon
  TGI: > 100 µM
SNB-19 CNS
  TGI: > 100 µM
BT-549 breast
  TGI: > 100 µM
K-562 leukemia
  TGI: > 100 µM

## COc1ccc(N2C(=O)CC(c3c[nH]c4ccccc34)C2=O)cc1 (stereo unspecified)
OVCAR-8 ovarian
  TGI: > 100 µM
HT29 colon
  TGI: > 100 µM
SF-539 CNS
  TGI: > 100 µM
786-0 renal
  TGI: > 100 µM
MCF7 breast
  TGI: > 100 µM
SW-620 colon
  TGI: > 100 µM
SNB-19 CNS
  TGI: > 100 µM
BT-549 breast
  TGI: > 100 µM
K-562 leukemia
  TGI: > 100 µM

## CCOC(=O)C1C(=O)CC(C)(O)C(C(=O)OCC)C1c1ccc(OC)cc1 (stereo unspecified)
OVCAR-8 ovarian
  TGI: > 100 µM
HT29 colon
  TGI: > 100 µM
SF-539 CNS
  TGI: > 100 µM
786-0 renal
  TGI: > 100 µM
MCF7 breast
  TGI: > 100 µM
SW-620 colon
  TGI: > 100 µM
SNB-19 CNS
  TGI: > 100 µM
BT-549 breast
  TGI: > 100 µM
K-562 leukemia
  TGI: > 100 µM

## CCCCCCCCCCCCCCCCC(=O)N1CCCC1C(=O)NCC(=O)NC(C(=O)N1CCCC1C(=O)NC(CO)C(=O)NC(Cc1ccc(O)cc1)C(=O)NC(CCCCNC(=O)C1CCCN1C(=O)C(CCCCN)NC(=O)C(CCCCN)NC(=O)C(CCCCN)NC(=O)C(CCCNC(=N)N)NC(=O)C(CCCCN)NC(=O)C(N)C(C)C)C(=O)NC(CC(C)C)C(=O)NC(CCCNC(=N)N)C(=O)N1CCCC1C(=O)NCC(N)=O)c1ccccc1 (stereo unspecified) (I: Heptadecanoyl-PG[Phg]PSYKLRPG-NH2 / II: H-VKRKKKP; amide I:7-II:C; configuration not given here)
OVCAR-8 ovarian
  GI50: 28.2 µM
  TGI: 84.6 µM
HT29 colon
  GI50: 29.6 µM
  TGI: > 100 µM
SF-539 CNS
  GI50: 34.4 µM
  TGI: > 100 µM
MCF7 breast
  GI50: 23.6 µM
  TGI: > 100 µM
SW-620 colon
  GI50: 40.5 µM
  TGI: > 100 µM
SNB-19 CNS
  GI50: 31.2 µM
  TGI: 84.1 µM
BT-549 breast
  GI50: 36.5 µM
  TGI: 89.3 µM
K-562 leukemia
  GI50: 10.2 µM
  TGI: 86.8 µM

## CC(C)=CCC/C(C)=C/CC/C(C)=C/CC/C(C=O)=C/CC/C(C)=C\CC/C(C)=C/CC/C(C)=C/CC/C(C)=C/CC1=CC(=O)C=CC1=O
OVCAR-8 ovarian
  TGI: > 100 µM
786-0 renal
  TGI: > 100 µM
MCF7 breast
  TGI: > 100 µM
SW-620 colon
  TGI: > 100 µM
SNB-19 CNS
  TGI: > 100 µM
BT-549 breast
  TGI: > 100 µM
K-562 leukemia
  TGI: > 100 µM

## COc1ccc(-n2nnnc2C2(Nc3ccccc3)CCN(Cc3ccccc3)CC2)cc1
OVCAR-8 ovarian
  TGI: 54.6 µM
HT29 colon
  TGI: 21.3 µM
SF-539 CNS
  TGI: 34.6 µM
786-0 renal
  TGI: 28 µM
MCF7 breast
  TGI: 23.3 µM
SW-620 colon
  TGI: 38.3 µM
SNB-19 CNS
  TGI: 68.5 µM
K-562 leukemia
  TGI: 15.4 µM

## CC(C)(C)C1=NN=C2c3ccccc3C(=O)C21 (stereo unspecified)
OVCAR-8 ovarian
  TGI: > 100 µM
HT29 colon
  TGI: > 100 µM
SF-539 CNS
  TGI: > 100 µM
786-0 renal
  TGI: > 100 µM
MCF7 breast
  TGI: > 100 µM
SW-620 colon
  TGI: > 100 µM
SNB-19 CNS
  TGI: > 100 µM
K-562 leukemia
  TGI: > 100 µM

## C/C(=C\c1ccc2c(c1)OCO2)[N+](=O)[O-]
OVCAR-8 ovarian
  TGI: 5.79 µM
HT29 colon
  TGI: 7.21 µM
SF-539 CNS
  TGI: 9.24 µM
SW-620 colon
  TGI: > 100 µM
SNB-19 CNS
  TGI: 6.98 µM
K-562 leukemia
  TGI: > 100 µM

## CC1(CC(=O)OC(C#C[Si](C)(C)C)Cc2ccccc2)OCCO1 (stereo unspecified)
OVCAR-8 ovarian
  TGI: > 100 µM
HT29 colon
  TGI: > 100 µM
SF-539 CNS
  TGI: > 100 µM
786-0 renal
  TGI: > 100 µM
MCF7 breast
  TGI: > 100 µM
SW-620 colon
  TGI: > 100 µM
SNB-19 CNS
  TGI: > 100 µM
BT-549 breast
  TGI: > 100 µM

## COc1ccc(C2Oc3c(cccc3OC)C=C2[N+](=O)[O-])cc1 (stereo unspecified)
OVCAR-8 ovarian
  TGI: 11.2 µM
HT29 colon
  TGI: 4.59 µM
786-0 renal
  TGI: 4.98 µM
MCF7 breast
  TGI: 10.8 µM
SNB-19 CNS
  TGI: 16.6 µM
BT-549 breast
  TGI: 4.32 µM
K-562 leukemia
  TGI: 16.3 µM

## CC(C)(C)OC(=O)N1C(=O)OC[C@@H]2C=C[C@@H]21
OVCAR-8 ovarian
  TGI: > 100 µM
HT29 colon
  TGI: > 100 µM
SF-539 CNS
  TGI: > 100 µM
786-0 renal
  TGI: > 100 µM
MCF7 breast
  TGI: > 100 µM
SW-620 colon
  TGI: > 100 µM
SNB-19 CNS
  TGI: > 100 µM
BT-549 breast
  TGI: > 100 µM

## Clc1cccc(Cl)c1C1SCc2nc3ncccc3n21 (stereo unspecified)
OVCAR-8 ovarian
  TGI: > 100 µM
HT29 colon
  TGI: > 100 µM
SF-539 CNS
  TGI: > 100 µM
786-0 renal
  TGI: > 100 µM
SW-620 colon
  TGI: > 100 µM
SNB-19 CNS
  TGI: > 100 µM
K-562 leukemia
  TGI: > 100 µM

## Cc1ccccc1Nc1cn(CCOc2ccccc2)c(=O)n(CCOc2ccccc2)c1=O
HT29 colon
  TGI: > 100 µM
786-0 renal
  TGI: > 100 µM
MCF7 breast
  TGI: > 100 µM
SW-620 colon
  TGI: > 100 µM
BT-549 breast
  TGI: > 100 µM
K-562 leukemia
  TGI: > 100 µM

## CC1OC2OC3C(OCC(O)C3O)OC(=O)[C@]34CCC(C)(C)CC3C3=CCC5[C@@]6(C)C[C@H](O)[C@H](OC7OC(CO)C(O)C(O)C7OC7OC(COC(=O)CC(C)(O)CC(=O)OC1C(O)C2O)C(O)C(O)C7O)[C@@](C)(CO)C6CC[C@@]5(C)[C@]3(C)CC4 (stereo partly specified)
OVCAR-8 ovarian
  TGI: 3.1 µM
HT29 colon
  TGI: 3.18 µM
SF-539 CNS
  TGI: 11.9 µM
786-0 renal
  TGI: 2.4 µM
MCF7 breast
  TGI: 15.2 µM
SW-620 colon
  TGI: 2.44 µM
SNB-19 CNS
  TGI: 3.18 µM
BT-549 breast
  TGI: 2.82 µM

## Cn1c(=O)c2c(nc3sc4ncccc4c(=O)n32)n(C)c1=O
OVCAR-8 ovarian
  TGI: > 100 µM
HT29 colon
  TGI: > 100 µM
SF-539 CNS
  TGI: > 100 µM
786-0 renal
  TGI: > 100 µM
MCF7 breast
  TGI: > 100 µM
SW-620 colon
  TGI: > 100 µM
SNB-19 CNS
  TGI: > 100 µM
BT-549 breast
  TGI: > 100 µM

## O=C1C(c2c(O)[nH]c3ccc(S(=O)(=O)N(CCO)CCO)cc23)=Nc2ccccc21
OVCAR-8 ovarian
  TGI: > 100 µM
HT29 colon
  TGI: > 100 µM
786-0 renal
  TGI: > 100 µM
MCF7 breast
  TGI: > 100 µM
SW-620 colon
  TGI: > 100 µM
SNB-19 CNS
  TGI: > 100 µM
BT-549 breast
  TGI: > 100 µM
K-562 leukemia
  TGI: > 100 µM

## CC1(C)OC([C@H](O)CO)C([C@H]2NCCS2)O1 (stereo partly specified)
OVCAR-8 ovarian
  TGI: > 100 µM
HT29 colon
  TGI: > 100 µM
786-0 renal
  TGI: > 100 µM
SW-620 colon
  TGI: > 100 µM
SNB-19 CNS
  TGI: > 100 µM
BT-549 breast
  TGI: > 100 µM
K-562 leukemia
  TGI: > 100 µM

## Nc1nc(Cl)nc2c1ncn2C1CCC(CO)O1 (stereo unspecified)
OVCAR-8 ovarian
  TGI: > 100 µM
HT29 colon
  TGI: > 100 µM
MCF7 breast
  TGI: > 100 µM
SW-620 colon
  TGI: > 100 µM
SNB-19 CNS
  TGI: > 100 µM
BT-549 breast
  TGI: > 100 µM

## Cc1cc(-c2ccc(Cl)cc2)c(C#N)c(=S)n1C1OC(CO)C(O)C(O)C1O (stereo unspecified)
OVCAR-8 ovarian
  TGI: > 100 µM
HT29 colon
  TGI: > 100 µM
SF-539 CNS
  TGI: > 100 µM
786-0 renal
  TGI: > 100 µM
MCF7 breast
  TGI: > 100 µM
SW-620 colon
  TGI: > 100 µM
SNB-19 CNS
  TGI: > 100 µM

## COc1cc(OC)nc(NC(=O)NS(=O)(=O)c2cccc3ncn(C)c(=O)c23)n1
OVCAR-8 ovarian
  TGI: > 100 µM
HT29 colon
  TGI: > 100 µM
SF-539 CNS
  TGI: > 100 µM
786-0 renal
  TGI: > 100 µM
MCF7 breast
  TGI: > 100 µM
SW-620 colon
  TGI: > 100 µM
SNB-19 CNS
  TGI: > 100 µM
K-562 leukemia
  TGI: > 100 µM

## [O-][n+]1onc2c1-c1nonc1CC2
OVCAR-8 ovarian
  TGI: > 100 µM
HT29 colon
  TGI: > 100 µM
SF-539 CNS
  TGI: 53.4 µM
786-0 renal
  TGI: > 100 µM
MCF7 breast
  TGI: > 100 µM
SW-620 colon
  TGI: > 100 µM
SNB-19 CNS
  TGI: > 100 µM
K-562 leukemia
  TGI: > 100 µM

## CO/N=C/c1c(-c2ccc(Cl)cc2)c(/C=N/OC)n2c1sc1ccccc12
OVCAR-8 ovarian
  TGI: > 100 µM
HT29 colon
  TGI: > 100 µM
786-0 renal
  TGI: > 100 µM
MCF7 breast
  TGI: > 100 µM
SW-620 colon
  TGI: > 100 µM
SNB-19 CNS
  TGI: > 100 µM
BT-549 breast
  TGI: > 100 µM
K-562 leukemia
  TGI: > 100 µM

## O=C(O)CCCC#CCCCC(=O)O
OVCAR-8 ovarian
  TGI: > 100 µM
HT29 colon
  TGI: > 100 µM
SF-539 CNS
  TGI: > 100 µM
786-0 renal
  TGI: > 100 µM
MCF7 breast
  TGI: > 100 µM
SNB-19 CNS
  TGI: > 100 µM
K-562 leukemia
  TGI: > 100 µM

From PubChem BioAssay (NCI)
